Measurements from PMC9456400 (International Journal of Molecular Sciences, 2022).

Assays:
recombinant human CYP3A4 = recombinant human CYP3A4 (Homo sapiens, UniProt P08684); experiment: Vivid CYP450 Red screening assay (BOMR substrate, baculosomes)
Protocol: The Vivid® BOMR substrate is a blocked dye that yields a minimal fluorescence signal until metabolized by CYP3A4 into products that are highly fluorescent in aqueous solutions (Figure 5, left panel).
The stringent validation process ensures the highest quality data possible for the 10-point titration, which was performed in duplicate (n = 3). An additional two control wells for each compound concentration tested are conducted to detect autofluorescent compound interference.

Huh-7 cells [1] = experiment: Oil Red O and LipidTOX staining of neutral lipids; assay type: cell-based, human; settings: Huh-7, chronic exposure 7 days; silibinin 10 μmol/L as co-treatment with lorlatinib
Protocol: We first employed a conventional index of fatty liver disease––the intracellular accumulation of neutral lipids (steatosis)––to confirm the ability of lorlatinib to trigger hypertriglyceridemia and hypercholesteremia.
(§1) For assessment of neutral lipid formation, cells were washed in PBS, fixed with 4% paraformaldehyde for 30 min, washed in distilled water, and then briefly incubated in 60% isopropanol. Following equilibration, cells were stained with a working solution (60%) of Oil Red O for 20 min. An Oil Red O stock solution was prepared by dissolving 0.35% w/v Oil Red O in 100 mL 100% isopropanol. HCS LipidTOX™ Green Neutral Lipid Stain (Invitrogen; Cat. #H34475) was employed as a second staining cocktail for visualization of intracellular neutral lipids. Formaldehyde fixation and preparing/using the labeling solution was carried out as per the manufacturer’s instructions.

HepG2 cells = experiment: Oil Red O staining of neutral lipids; assay type: cell-based, human; settings: HepG2, acute exposure 48 h; silibinin 100 μmol/L as co-treatment with lorlatinib
Protocol: To confirm these findings, we employed an independent in vitro model of fatty liver disease involving non-tumorigenic HepG2 cells, which are routinely employed as an inducible fatty liver cell model to screen for therapeutic drugs to eliminate lipid accumulation.
as §1

[2] = standard doses of silibinin-containing milk thistle preparations ref 57; cited from earlier work
Huh-7 cells [3] = experiment: Colorimetric enzymatic quantification of cholesteryl esters and triglycerides; assay type: cell-based, human; settings: lorlatinib-treated (1 μmol/L) Huh-7 cells, silibinin 100 μmol/L, 48 h
Huh-7 cells [4] = experiment: Toxicity of the combination in long-term confluent Huh-7 cells; assay type: cell-based, human; settings: silibinin as high as 100 μmol/L, Huh-7 growing confluent for more than 1 month
Text: Our multi-faceted approach involving computational modeling, neural network-based prediction models to classify CYP inhibition, and in vitro validation using recombinant human CYP3A4, confirms and further extends the notion that exposure to standard doses of silibinin-containing milk thistle preparations leading to relatively low peak systemic concentrations (1–10 μmol/L) are expected to be accompanied by low-risk for an inhibitory interaction of the first-pass clearance of lorlatinib at the hepatic level.

Huh-7 cells [5] = experiment: UHPLC-ESI-QTOF-MS/MS lipidomics; assay type: cell-based, human
Text: We then questioned whether lorlatinib used at concentrations efficacious against ALK-rearranged lung cancer cells but non-toxic to ALK-negative cells could promote substantial lipidome changes in Huh-7 cells (Figure 1B; Table 1). Accordingly, […], and the lipidome was characterized in a semi-targeted approach using a UHPLC-ESI-QTOF-MS/MS method, in which we matched mass spectra with commercial standards (SPLAH mix), databases such as METLIN-PCDL and Lipid MAPS (accessed on 1 July 2022), as well as corroboration of tentative lipid species upon obtaining their MS/MS spectrum. Representative chromatograms of lipidomic analyses in Huh-7 cells can be found in Figure S1.
Lipid extraction, preparation of external calibration curves, and quality control approaches were carried out as described. Samples (2 μL) were injected directly into a 1290 Infinity UHPLC system coupled with a dual Agilent jet stream ESI source to a 6550 QTOF-MS instrument (Agilent Technologies, Santa Clara, CA, USA). UHPLC-ESI-QTOF-MS conditions, data analysis and indirect quantification of selected lipid species using MassHunter Qualitative Analysis B.07.00 software (Agilent Technologies), and corroboration of the tentative characterization of compound match entities using the Lipid Maps database (www.lipidmaps.org, accessed on 1 July 2022) and targeted MS/MS acquisition on LC-QTOF-MS instrument, have been previously described in detail.
Differentially expressed lipid species from untargeted lipidomic data were analyzed by generating volcano plots indicating statistical significance versus magnitude of fold-change for each lipid species (cutoff of Benjamini–Hochberg corrected p-value < 0.05 and log2 fold-change > 1 or […]).

Chain of recombinant human CYP3A4 (P08684 whole entry): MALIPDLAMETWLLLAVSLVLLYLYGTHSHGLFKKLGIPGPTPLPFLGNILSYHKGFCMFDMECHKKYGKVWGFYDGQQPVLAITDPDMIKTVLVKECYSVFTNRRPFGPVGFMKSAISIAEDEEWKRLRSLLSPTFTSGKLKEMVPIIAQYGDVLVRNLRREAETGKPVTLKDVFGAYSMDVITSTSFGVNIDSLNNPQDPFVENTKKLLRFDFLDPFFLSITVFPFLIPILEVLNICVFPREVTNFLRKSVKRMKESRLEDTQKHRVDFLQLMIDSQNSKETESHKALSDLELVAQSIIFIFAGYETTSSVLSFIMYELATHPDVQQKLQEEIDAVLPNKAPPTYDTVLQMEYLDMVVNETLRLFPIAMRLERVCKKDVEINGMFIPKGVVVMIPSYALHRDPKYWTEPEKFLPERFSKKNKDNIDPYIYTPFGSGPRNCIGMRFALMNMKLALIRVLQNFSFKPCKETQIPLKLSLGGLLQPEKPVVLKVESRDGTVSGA

Row | SMILES | IC50 (recombinant human CYP3A4) [µM] | Accumulation of neutral lipids (lipid droplets) (Huh-7 cells [1]) | Accumulation of neutral lipids (lipid droplets) (HepG2 cells) | Peak systemic concentrations [2] [µmol/L] | Accumulation of cholesterol esters and triglycerides (Huh-7 cells [3]) | Toxic effects of the combination with lorlatinib (Huh-7 cells [4]) | Change of lipid species, single agent (Huh-7 cells [5]; Huh-7, 48 h, lorlatinib 1 μmol/L, silibinin 100 μmol/L) | Effect of co-treatment on lorlatinib-induced rise of lipid species (Huh-7 cells [5]; Huh-7, silibinin 100 μmol/L with lorlatinib 1 μmol/L, 48 h)
1 | CC(C)c1nc(N(C)S(C)(=O)=O)nc(-c2ccc(F)cc2)c1/C=C/[C@@H](O)C[C@@H](O)CC(=O)O [rosuvastatin] | > 300 |  |  |  |  |  |  | 
2 | COc1cc(C2Oc3cc([C@H]4Oc5cc(O)cc(O)c5C(=O)[C@@H]4O)ccc3OC2CO)ccc1O (some centres unmarked) [silibinin] |  | notably decreased the quantity and size of the lipid droplets | markedly fewer and smaller neutral lipid depots | 1 to 10 | inhibit the accumulation of cholesterol esters and triglycerides | failed to observed significant toxic effects | significantly lowered the baseline abundance of many ChoE species | completely blunted the significant lorlatinib-induced rise in numerous ChoE and TG/DG species
